“And” between values parts separate entries of the source, which are not always exact repeats. Identical values can stand only once. “Also recorded” adds a separate entry of the source. Like-named read-outs stand apart in the source and are kept apart here.
How the values were obtained:
HL-60 cells = assay: HL-60 differentiation (nitro blue tetrazolium reduction); assay type: cell-based, human; conditions: FIG. 2
Method: The study drugs were dissolved in ethanol and the concentrations determined using UV spectrophotometry. Serial dilutions were prepared so that a range of drug concentrations could be tested without changing the final concentration of ethanol ([…]) present in the cell cultures.
Human promyelocytic leukemia (HL60) cells were grown in RPMI-1640 medium containing 10% fetal bovine serum. The cells were incubated at 37° C. in the presence of 5% CO2.
HL60 cells were plated at 1.2×10^5 cells/ml. Eighteen hours after plating, cells in duplicate were treated with drug. Four days later, the cells were harvested and a nitro blue tetrazolium reduction assay was performed (Collins et al., 1979; J. Exp. Med. 149:969-974). The percentage of differentiated cells was determined by counting a total of 200 cells and recording the number that contained intracellular black-blue formazan deposits. Verification of differentiation to monocytic cells was determined by measuring phagocytic activity (data not shown).

Sprague-Dawley rats [1] = assay: Intestinal calcium transport (everted gut sac method); assay type: in vivo, rat; conditions: for Intestinal calcium transport (change from vehicle, serosal/mucosal ratio): vehicle subtracted
Method: (§1) Male, weanling Sprague-Dawley rats were placed on Diet 11 (0.47% Ca) diet+AEK oil for one week followed by Diet 11 (0.02% Ca)+AEK oil for 3 weeks. The rats were then switched to a diet containing 0.47% Ca for one week followed by two weeks on a diet containing 0.02% Ca. Dose administration began during the last week on 0.02% calcium diet. Four consecutive intraperitoneal doses were given approximately 24 hours apart. Twenty-four hours after the last dose, blood was collected from the severed neck and the concentration of serum calcium determined as a measure of bone calcium mobilization. The first 10 cm of the intestine was also collected for intestinal calcium transport analysis using the everted gut sac method.

[2] = test system: 24-hydroxylase (24OHase) gene promoter; assay: In vitro transcription assay (24-hydroxylase promoter-luciferase in ROS 17/2.8 bone cells); assay type: cell-based; conditions: FIG. 3
Method: Transcription activity was measured in ROS 17/2.8 (bone) cells that were stably transfected with a 24-hydroxylase (24OHase) gene promoter upstream of a luciferase reporter gene (Arbour et al., 1998). Cells were given a range of doses. Sixteen hours after dosing the cells were harvested and luciferase activities were measured using a luminometer. RLU=relative luciferase units.

[3] = molecular target: T1, recombinant vitamin D receptor (Rattus norvegicus, UniProt P13053); assay: Vitamin D receptor binding (competitive, 3H-1,25(OH)2D3)
T1 construct: Fun-length recombinant rat receptor was expressed in E. coli; histidine tag (C); made in house; host or cells: E. coli BL21(DE3) Codon Plus RIL
T1 sequence (P13053 1-423): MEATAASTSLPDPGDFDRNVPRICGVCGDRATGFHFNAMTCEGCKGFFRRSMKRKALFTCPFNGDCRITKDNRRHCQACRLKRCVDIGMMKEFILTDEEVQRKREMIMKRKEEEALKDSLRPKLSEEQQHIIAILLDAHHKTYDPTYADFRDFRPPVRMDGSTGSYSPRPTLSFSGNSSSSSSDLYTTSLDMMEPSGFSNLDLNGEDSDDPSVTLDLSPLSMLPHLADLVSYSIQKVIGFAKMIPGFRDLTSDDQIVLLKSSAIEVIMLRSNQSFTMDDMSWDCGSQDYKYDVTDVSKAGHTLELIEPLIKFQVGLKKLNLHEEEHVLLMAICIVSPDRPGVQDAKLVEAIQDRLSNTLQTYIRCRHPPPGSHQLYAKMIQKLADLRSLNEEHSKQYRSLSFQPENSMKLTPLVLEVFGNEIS
Method: Fun-length recombinant rat receptor was expressed in E. coli BL21(DE3) Codon Plus RIL cells and purified to homogeneity using two different column chromatography systems. The first system was a nickel affinity resin that utilizes the C-terminal histidine tag on this protein. The protein that was eluted from this resin was further purified using ion exchange chromatography (S-Sepharose Fast How). Aliquots of the purified protein were quick frozen in liquid nitrogen and stored at −80° C. until use. For use in binding assays, the protein was diluted in TEDK50 (50 mM […], 1.5 mM EDTA, pH 7.4, 5 mM DTT, 150 mM KCl) with 0.1% Chaps detergent. The receptor protein and ligand concentration was optimized such that no more than 20% of the added radiolabeled ligand was bound to the receptor.
Unlabeled ligands were dissolved in ethanol and the concentrations determined using UV spectrophotometry (1,25(OH)2D3: molar extinction coefficient=18,200 and λmax=265 nm; Analogs: molar extinction coefficient=42,000 and λmax=252 nm). Radiolabeled ligand (^3H-1,25(OH)2D3, ˜159 Ci/mmole) was added in ethanol at a final concentration of 1 nM.
Radiolabeled and unlabeled ligands were added to […] of the diluted protein at a final ethanol concentration of ≦10%, mixed and incubated overnight on ice to reach binding equilibrium. […] Total binding was determined from the tubes containing only radiolabeled ligand.

Sprague-Dawley rats [4] = assay: Bone calcium mobilization (serum calcium); assay type: in vivo, rat; conditions: for Bone calcium mobilization (change from vehicle, mg/dL): vehicle subtracted
Method: as §1

Sprague-Dawley rats [5] = conditions: cited from earlier work; for Bone calcium mobilization (change from vehicle, mg/dL): as reported by Grzywacz et al. 2007
Sprague-Dawley rats [6] = conditions: cited from earlier work; for Intestinal calcium transport (change from vehicle, serosal/mucosal ratio): as reported by Grzywacz et al. 2007
[7] = 260 pmol dose, data of Grzywacz et al. 2007

Structure (SMILES): C=C1[C@H](O)CC(=C/C=C2\CCC[C@@]3(C)C2CCC3[C@@H](C)CCCCC)C[C@H]1O (stereo in doubt) [26N, 2-methylene-19,26-nor-(20S)-1α-hydroxyvitamin D3]
- Potency in causing differentiation of HL-60 cells into monocytes compared with 1,25(OH)2D3 (in words) (HL-60 cells): same potency as 1,25(OH)2D3
- Potency in causing differentiation of HL-60 cells into monocytes compared with 1,25(OH)2D3 (in words) (HL-60 cells; listed as 2-Methylene-19,26-nor-(20S)-1α-hydroxyvitamin D3): same potency as 1,25-(OH)2D3
- Intestinal calcium transport (calcemic) activity, in words (Sprague-Dawley rats [1]; 260 pmol dose): essentially no calcemic activity
- Calcemic activity (intestinal calcium transport), in words (Sprague-Dawley rats [1]; overall, FIGS. 5A, 5B): very low; also recorded: noticeably less active than 1,25-(OH)2D3
- Times less potent than 1,25(OH)2D3 in promoting active calcium transport in the rat gut (Sprague-Dawley rats [1]; rat, FIGS. 5A and 5B): at least 10 times
- Intestinal calcium transport (change from vehicle, serosal/mucosal ratio) (Sprague-Dawley rats [1]; rat, dose level 260 pmol): 0.1 serosal/mucosal ratio
- Intestinal calcium transport (change from vehicle, serosal/mucosal ratio) (Sprague-Dawley rats [1]; rat, dose level 7020 pmol): 8.7 serosal/mucosal ratio and 7.2 serosal/mucosal ratio
- Intestinal calcium transport (change from vehicle, serosal/mucosal ratio) (Sprague-Dawley rats [1]; rat, dose level 35100 pmol): 4.6 serosal/mucosal ratio
- Potency in increasing transcription of the 24-hydroxylase gene compared with 1,25(OH)2D3 (in words) ([2]; ROS 17/2.8 bone cells): about one log less potent than 1,25(OH)2D3
- Times less potent than 1,25-(OH)2D3 in stimulating 24-OHase gene expression ([2]; bone cells): about 10 times
- Binding to the nuclear vitamin D receptor compared with 1,25(OH)2D3 (in words) ([3]; FIG. 1): same affinity as 1,25(OH)2D3
- Binding to the nuclear vitamin D receptor compared with 1,25(OH)2D3 (in words) ([3]; FIG. 1, listed as 2-Methylene-19,26-nor-(20S)-1α-hydroxyvitamin D3): approximately equally effective as 1,25-(OH)2D3
- Bone calcium mobilization (calcemic) activity, in words (Sprague-Dawley rats [4]; 260 pmol dose): essentially no calcemic activity
- Bone calcium mobilization activity, in words (Sprague-Dawley rats [4]; 7020 pmol): little bone calcium mobilization activity
- Times less active than 1,25-(OH)2D3 on bone calcium mobilization (Sprague-Dawley rats [4]; as shown at the dose of 7020 pmol, FIG. 4B): ~30 times
- Calcemic activity (bone calcium mobilization), in words (Sprague-Dawley rats [4]; overall, FIGS. 4A, 4B): very low
- Times less potent than 1,25(OH)2D3 in releasing bone calcium stores (Sprague-Dawley rats [4]; rat, FIGS. 4A and 4B): approximately 30 times
- Bone calcium mobilization (change from vehicle, mg/dL) (Sprague-Dawley rats [4]; rat, dose level 260 pmol, four intraperitoneal doses): -0.1 mg/dL
- Bone calcium mobilization (change from vehicle, mg/dL) (Sprague-Dawley rats [4]; rat, dose level 7020 pmol): 0.6 mg/dL and 0.8 mg/dL
- Bone calcium mobilization (change from vehicle, mg/dL) (Sprague-Dawley rats [4]; rat, dose level 35100 pmol): 4.0 mg/dL

Structure (SMILES): C=C1[C@H](O)CC(=C/C=C2\CCC[C@]3(C)[C@@H]([C@@H](C)CCCC(C)C)CC[C@@H]23)C[C@H]1O [26Me, 2-methylene-19-nor-(20S)-1α-hydroxyvitamin D3]
- Bone calcium mobilization activity, in words (Sprague-Dawley rats [5]; [7]): significant activity
- Bone calcium mobilization (change from vehicle, mg/dL) (Sprague-Dawley rats [5]; dose level 87 pmol): 2.0 mg/dL
- Bone calcium mobilization (change from vehicle, mg/dL) (Sprague-Dawley rats [5]; dose level 260 pmol): 4.0 mg/dL
- Bone calcium mobilization (change from vehicle, mg/dL) (Sprague-Dawley rats [5]; dose level 780 pmol): 5.3 mg/dL
- Bone calcium mobilization (change from vehicle, mg/dL) (Sprague-Dawley rats [5]; dose level 2340 pmol): 5.6 mg/dL
- Intestinal calcium transport activity, in words (Sprague-Dawley rats [6]; [7]): significant activity
- Intestinal calcium transport (change from vehicle, serosal/mucosal ratio) (Sprague-Dawley rats [6]; dose level 87 pmol): 6.6 serosal/mucosal ratio
- Intestinal calcium transport (change from vehicle, serosal/mucosal ratio) (Sprague-Dawley rats [6]; dose level 260 pmol): 5.3 serosal/mucosal ratio
- Intestinal calcium transport (change from vehicle, serosal/mucosal ratio) (Sprague-Dawley rats [6]; dose level 780 pmol): 2.3 serosal/mucosal ratio
- Intestinal calcium transport (change from vehicle, serosal/mucosal ratio) (Sprague-Dawley rats [6]; dose level 2340 pmol): 5.4 serosal/mucosal ratio
- Bone calcemic activity as multiple of that of 26N (Sprague-Dawley rats [4]; at 2340 pmol versus 26N at the higher dose of 7020 pmol): ~10 times

Source: US20110294764A1, “2-METHYLENE-19,26-NOR-(20S)-1alpha-HYDROXYVITAMIN D3” (priority 2009, published 2011)
